These results are taken from patent US4544556A, “Xanthine derivatives, pharmaceutical compositions containing same and their therapeutic use” (Malesci S.p.A. Istituto Farmacologico, priority 1982, dated 1985).

The nature of one data set: Acute toxicity. As to conditions: mouse, in vivo, male Swiss mouses about 20 g, empty since 16 hours, read-out: DL50 (the source's name). The protocol:
The compound has been administered either per os or by intravenous injection to male Swiss mouses having a weight of about 20 g, empty since 16 hours.

Data set [1] relates to acetylcholine induced bronchospasm. Description: Antibronchospastic activity (acetylcholine induced bronchospasm, Konzett-Rossler method). As to conditions: Cavia porcellus, im, read-out: ED50 (50% reduction of acetylcholine induced bronchospasm). The format is in vivo, guinea pigs. The source says: The test has been carried out in anaesthesized adult guinea pigs under artificial respiration.

A further data set has as its system brain P.D.E. As to the kind of experiment: Antiphosphodiesterase activity, brain P.D.E. It counts as biochemical, Wistar rats. As to conditions: rat brain, relative to theophylline. The text has this:
(§1) The preparation of the enzyme from heart, lungs and brain of Wistar rats and the activity test of P.D.E. have been carried out according to the R. W. BUTCHER and E. W. […] (J. Biol. Chem. 237, 1244; 1962).

In the next data set the test system is heart P.D.E. Description: Antiphosphodiesterase activity, heart P.D.E. The format is biochemical, Wistar rats. As to conditions: rat heart, relative to theophylline.
Source text: as §1

The next data set relates to lung P.D.E. As to the kind of experiment: Antiphosphodiesterase activity, lung P.D.E. The format is biochemical, Wistar rats. As to conditions: rat lungs, relative to theophylline.
Source text: as §1

The test system of another data set is mouses. As to the kind of experiment: Activity on CNS: reaction to subtoxic dose of cardiazole, mouses. It counts as in vivo. As to conditions: cardiazole i.p. 60-70 mg/Kg.
Another data set deals with rats. As to the kind of experiment: Activity on CNS: reaction to subtoxic dose of cardiazole, rats. It counts as in vivo. As to conditions: cardiazole i.p. 60-70 mg/Kg.
The test system of a further data set is guinea pigs. Description: Activity on CNS: reaction to subtoxic dose of cardiazole, guinea pigs. The format is in vivo. As to conditions: cardiazole i.p. 60-70 mg/Kg.
[2] abbreviates: 0.5 h, 30' after intramuscular administration.
The mark [3] stands for this setting: 1 h, 60' after intramuscular administration.
Setting [4] is: 1.5 h, 90' after intramuscular administration.

Like-named read-outs stand apart in the source and are kept apart here.

Consider `CC(C)Cn1cnc2c1c(=O)n(C)c(=O)n2C` [7-isobutyl theophylline, 1,3-dimethyl-7-isobutyl-xanthine], for which the LD50 in “Acute toxicity” (po, per os) came to 199 mg/kg; in the data set “Acute toxicity” (intravenous injection), 129 mg/kg. Also, the ED50 in data set [1] (setting [2]) stood at 120 µmol/kg; in data set [1] (setting [3]) it was 140 µmol/kg; in data set [1] (setting [4]), 160 µmol/kg. Further, in the data set with brain P.D.E., the “activity against brain P.D.E. in comparison with theophylline” value is “twice more active”. For the same molecule, the “activity against heart P.D.E. in comparison with theophylline” value in the data set on heart P.D.E. is listed as “four times more active”. Besides, the “activity against lung P.D.E. in comparison with theophylline” value with lung P.D.E. was “four times more active”. Besides, the “% dead animals” value in the data set with mouses (25 mg/kg S.C. (20')), in the data set on mouses (50 mg/kg S.C. (20')), with mouses (100 mg/kg S.C. (20')), in the data set with rats (50 mg/kg S.C. (20')), in the data set with rats (100 mg/kg S.C. (20')) and in the data set with guinea pigs (50 mg/kg S.C. (20')) was 0% each time. In addition, the “% dead animals” value in the data set on guinea pigs (100 mg/kg S.C. (20')) is 0%.

`Cn1c(=O)c2[nH]cnc2n(C)c1=O` [Theophylline, theophylline, reference compound]: the ED50 in data set [1] (setting [2]) was 270 µmol/kg; in data set [1] (setting [3]) it was 230 µmol/kg; in data set [1] (setting [4]) it was 200 µmol/kg.
